ChEMBL document CHEMBL1138190, “Synthesis and antibacterial activity of novel C12 vinyl ketolides” (J Med Chem, 2006)
≈ marks a conversion by molar mass, not a printed value.

Columns and labels:
Format in all cases: functional
Haemophilus influenzae [1] = assay: Antibacterial activity against Haemophilus influenzae 2762
Staphylococcus aureus [2] = assay: Antibacterial activity against Staphylococcus aureus 29213
Staphylococcus aureus [3] = assay: Antibacterial activity against Staphylococcus aureus 33591
[4] = system: Staphylococcus epidermidis; assay: Antibacterial activity against Staphylococcus epidermidis 14990
[5] = system: Staphylococcus epidermidis; assay: Antibacterial activity against Staphylococcus epidermidis f50654
Enterococcus faecalis [6] = assay: Antibacterial activity against Enterococcus faecalis 29212
Enterococcus faecalis [7] = assay: Antibacterial activity against Enterococcus faecalis bc11148-2
Streptococcus pyogenes = assay: Antibacterial activity against Streptococcus pyogenes 8668
Streptococcus pneumoniae [8] = assay: Antibacterial activity against Streptococcus pneumoniae 49619
Streptococcus pneumoniae [9] = assay: Antibacterial activity against Streptococcus pneumoniae 297-749
Streptococcus pneumoniae [10] = assay: Antibacterial activity against Streptococcus pneumoniae 280-962
Streptococcus pneumoniae [11] = assay: Antibacterial activity against Streptococcus pneumoniae Erm 6849
Streptococcus pneumoniae [12] = assay: Antibacterial activity against Streptococcus pneumoniae Mef 5654
Streptococcus pneumoniae [13] = assay: Antibacterial activity against Streptococcus pneumoniae Mef S 3427
Haemophilus influenzae [14] = assay: Antibacterial activity against Haemophilus influenzae 49247

SMILES	MIC (Haemophilus influenzae [1]) [µg/mL]	MIC (Staphylococcus aureus [2]) [µg/mL]	MIC (Staphylococcus aureus [3]) [µg/mL]	MIC [4] [µg/mL]	MIC [5] [µg/mL]	MIC (Enterococcus faecalis [6]) [µg/mL]	MIC (Enterococcus faecalis [7]) [µg/mL]	MIC (Streptococcus pyogenes) [µg/mL]	MIC (Streptococcus pneumoniae [8]) [µg/mL]	MIC (Streptococcus pneumoniae [9]) [µg/mL]	MIC (Streptococcus pneumoniae [10]) [µg/mL]	MIC (Streptococcus pneumoniae [11]) [µg/mL]	MIC (Streptococcus pneumoniae [12]) [µg/mL]	MIC (Streptococcus pneumoniae [13]) [µg/mL]	MIC (Haemophilus influenzae [14]) [µg/mL]
C=C[C@]12OC(=O)N(CCCCn3cnc4c(C)ncnc43)[C@@H]1[C@@H](C)C(=O)[C@H](C)C[C@@](C)(OC)[C@H](O[C@@H]1O[C@H](C)C[C@H](N(C)C)[C@H]1O)[C@@H](C)C(=O)[C@@H](C)C(=O)O[C@@H]2CC	0.78 (≈ 0.959 µM)	0.1 (≈ 0.123 µM)	> 50	0.1 (≈ 0.123 µM)	0.1 (≈ 0.123 µM)	≤ 0.05	0.4 (≈ 0.492 µM)	≤ 0.05	≤ 0.05	≤ 0.05	≤ 0.05	> 50	0.78 (≈ 0.959 µM)	0.2 (≈ 0.246 µM)	3.13 (≈ 3.85 µM)
C=C[C@]12OC(=O)N(CCCCn3ccc4c(N)cccc43)[C@@H]1[C@@H](C)C(=O)[C@H](C)C[C@@](C)(OC)[C@H](O[C@@H]1O[C@H](C)C[C@H](N(C)C)[C@H]1O)[C@@H](C)C(=O)[C@@H](C)C(=O)O[C@@H]2CC	3.13 (≈ 3.86 µM)	0.1 (≈ 0.123 µM)	> 50	0.1 (≈ 0.123 µM)	0.78 (≈ 0.962 µM)	≤ 0.05	0.625 (≈ 0.771 µM)	≤ 0.05	≤ 0.05	≤ 0.05	≤ 0.05	3.13 (≈ 3.86 µM)	0.78 (≈ 0.962 µM)	0.1 (≈ 0.123 µM)	3.13 (≈ 3.86 µM)
C=C[C@]12OC(=O)N(CCCCn3cnc(-c4cccnc4)c3)[C@@H]1[C@@H](C)C(=O)[C@H](C)C[C@@](C)(OC)[C@H](O[C@@H]1O[C@H](C)C[C@H](N(C)C)[C@H]1O)[C@@H](C)C(=O)[C@@H](C)C(=O)O[C@@H]2CC	1.56 (≈ 1.89 µM)	0.1 (≈ 0.121 µM)	> 50	0.2 (≈ 0.243 µM)	0.2 (≈ 0.243 µM)	0.1 (≈ 0.121 µM)	0.4 (≈ 0.485 µM)	≤ 0.05	≤ 0.05	≤ 0.05	≤ 0.05	0.2 (≈ 0.243 µM)	0.4 (≈ 0.485 µM)	0.1 (≈ 0.121 µM)	3.13 (≈ 3.8 µM)
C=C[C@]12OC(=O)N(CCCCc3cnc(-c4cccnc4)s3)[C@@H]1[C@@H](C)C(=O)[C@H](C)C[C@@](C)(OC)[C@H](O[C@@H]1O[C@H](C)C[C@H](N(C)C)[C@H]1O)[C@@H](C)C(=O)[C@@H](C)C(=O)O[C@@H]2CC	1.56 (≈ 1.85 µM)	0.1 (≈ 0.119 µM)	> 50	0.1 (≈ 0.119 µM)	0.1 (≈ 0.119 µM)	≤ 0.05	1.56 (≈ 1.85 µM)	≤ 0.05	≤ 0.05	≤ 0.05	≤ 0.05	1.56 (≈ 1.85 µM)	0.4 (≈ 0.476 µM)	≤ 0.05	3.13 (≈ 3.72 µM)
C=C[C@]12OC(=O)N(CCCCn3cnc(-c4ccc(NC)nc4)c3)[C@@H]1[C@@H](C)C(=O)[C@H](C)C[C@@](C)(OC)[C@H](O[C@@H]1O[C@H](C)C[C@H](N(C)C)[C@H]1O)[C@@H](C)C(=O)[C@@H](C)C(=O)O[C@@H]2CC	0.78 (≈ 0.914 µM)	0.1 (≈ 0.117 µM)	> 50	0.2 (≈ 0.234 µM)	0.1 (≈ 0.117 µM)	0.1 (≈ 0.117 µM)	0.78 (≈ 0.914 µM)	≤ 0.05	≤ 0.05	≤ 0.05	≤ 0.05	0.4 (≈ 0.469 µM)	1.56 (≈ 1.83 µM)	0.2 (≈ 0.234 µM)	3.13 (≈ 3.67 µM)
C=C[C@]12OC(=O)N(CCN(C)Cc3cnc(-c4cccnc4)s3)[C@@H]1[C@@H](C)C(=O)[C@H](C)C[C@@](C)(OC)[C@H](O[C@@H]1O[C@H](C)C[C@H](N(C)C)[C@H]1O)[C@@H](C)C(=O)[C@@H](C)C(=O)O[C@@H]2CC	3.13 (≈ 3.66 µM)	0.1 (≈ 0.117 µM)	> 50	0.1 (≈ 0.117 µM)	0.1 (≈ 0.117 µM)	0.1 (≈ 0.117 µM)	0.4 (≈ 0.467 µM)	≤ 0.05	≤ 0.05	≤ 0.05	≤ 0.05	0.78 (≈ 0.911 µM)	0.4 (≈ 0.467 µM)	0.1 (≈ 0.117 µM)	12.5 (≈ 14.6 µM)
